Assay results as given in US20250213719A1, “MAGNETIC NANOPARTICLES AND METHODS OF DRUG RELEASE” (University of Notre Dame du Lac, priority 2022, published 2025).
Values joined by “and” are separate entries in the source; they are usually repeats but may differ in a detail not shown here. Equal values may be shown once. Read-outs that look alike come from different tables or passages of the source.

Experiments:
Assay type in all cases: cell-based
[1] = tested on: MDA-MB-231 triple-negative breast cancer cells; settings: free or released from Dox-MagSiNs by AC magnetic field
Procedure: (§1) The media in each well of the chamber slides was carefully aspirated, and the wells were rinsed twice with 400 μL of 1×PBS. The cells were incubated with Ethidium-homodimer Ill dye and Calcein-AM dye mix at manufacturer recommended concentrations (Life-technologies), and the slides were incubated for 30 minutes in the cell incubator, in the dark. After incubation, the wells were rinsed twice with 400 μL of 1×PBS. Lastly, 300 μL of 4% buffered parafomaldehyde was added to each well, and the slides were taken to be imaged with a NikonU inverted fluorescent microscope with a 10× lens using a standard FITC/RITC green and red fluorescent filter cubes.
Viable cell populations of treated and untreated control cancer cell lines and treated and untreated normal cell lines were determined at the end of each run using a calcein-AM/propidium iodide assay to determine total cells and viable cell populations. […] When PI does gain access to nucleic acids and intercalates, its fluorescence increases dramatically and is therefore used to identify dead cells. […]
In this study, for each sample set (control group or test group), the total number of cells with green fluorescence and the total number of cells with red fluorescence were counted as separate datasets. […] For each sample set, the percent dead-cells and percent live-cells was calculated. […]

[2] = tested on: A2780 ovarian cancer cells; assay: Live/dead cell viability assay; settings: free or released from Dox-MagSiNs by AC magnetic field
Procedure: as §1
(§2) Viable cell populations of treated and untreated control cancer cell lines and treated and untreated normal cell lines were determined at the end of each run using a calcein-AM/propidium iodide assay to determine total cells and viable cell populations. The calcein-AM assay is based on the conversion of the cell permeant non-fluorescent calcein-AM dye to the fluorescent calcein dye by intracellular esterase activity in live cells. […] When PI does gain access to nucleic acids and intercalates, its fluorescence increases dramatically and is therefore used to identify dead cells. Calcein-Am and PI can be used separately or together to assess cellular viability or cell death, respectively.
(§3) In this study, for each sample set (control group or test group), the total number of cells with green fluorescence and the total number of cells with red fluorescence were counted as separate datasets. […] For each sample set, the percent dead-cells and percent live-cells was calculated. The percent live-cells was used as a measure of viability. A paired t-test under the assumption of comparing two-samples with equal variances and a >=0.05 was used to determine the statistical significance of the test-groups in comparison to the control groups.
(§4) A unidirectional magnetic field of 30-50 Gauss and an alternating magnetic field of 100 Hz, 30-50 Gauss were used for these experiments.

HUVEC cells = assay: Live/dead cell viability assay; settings: free or released from Dox-MagSiNs by AC magnetic field, permanent magnet 24 h then AC field 10 h, assay at 48 h
Procedure: as §1, §2, §3, §4

[3] = tested on: PC-3 prostate cancer cells; assay: Live/dead cell viability assay; settings: 500 nM Dox, free or released from Dox-MagSiNs by AC magnetic field, hydrochloride
Procedure: as §1, §2, §3, §4

Q: `COc1cccc2c1C(=O)c1c(O)c3c(c(O)c1C2=O)C[C@@](O)(C(=O)CO)C[C@@H]3O[C@H]1C[C@H](N)[C@H](O)[C@H](C)O1.Cl` [Dox·HCl, doxorubicin hydrochloride] was tested. Which cell death ([1]; 20 nM Dox) did it give?
A: Its cell death is “insignificant cell death”.

Q: And the cell death ([1]; 500 nM Dox)?
A: The cell death was 4%.

Q: What about the cell death ([2]; 20 nM Dox) of the same molecule?
A: The cell death was over 20%.

Q: And the cell death ([2]; 500 nM Dox, hydrochloride)?
A: The cell death was 83%.

Q: And the cell death ([2]; 500 nM Dox, listed as Dox, hydrochloride)?
A: Its cell death is 83% and 80-85%.

Q: And the cell death (HUVEC cells; 20 nM Dox·HCl)?
A: Its cell death is 100%.

Q: What about the cell death (HUVEC cells; 500 nM Dox·HCl) of the same molecule?
A: Its cell death is 100%.

Q: And the cell death [3]?
A: Its cell death is 100%.

Q: What about the cell death ([3]; listed as Dox) of the same molecule?
A: Its cell death is 100% and > 95%.
